# ChEMBL document CHEMBL2010724, “Oroxylin A analogs exhibited strong inhibitory activities against iNOS-mediated nitric oxide (NO) production” (Bioorg Med Chem Lett, 2012)
# Tests used:
# [1] = target: T1, Nitric oxide synthase, inducible (Mus musculus) (UniProt P29477); assay: Inhibition of iNOS-induced NO production in LPS-stimulated mouse BV2 cells at 10 uM after 24 hrs; type: cell-based; conditions: BV-2
# T1 sequence (whole entry): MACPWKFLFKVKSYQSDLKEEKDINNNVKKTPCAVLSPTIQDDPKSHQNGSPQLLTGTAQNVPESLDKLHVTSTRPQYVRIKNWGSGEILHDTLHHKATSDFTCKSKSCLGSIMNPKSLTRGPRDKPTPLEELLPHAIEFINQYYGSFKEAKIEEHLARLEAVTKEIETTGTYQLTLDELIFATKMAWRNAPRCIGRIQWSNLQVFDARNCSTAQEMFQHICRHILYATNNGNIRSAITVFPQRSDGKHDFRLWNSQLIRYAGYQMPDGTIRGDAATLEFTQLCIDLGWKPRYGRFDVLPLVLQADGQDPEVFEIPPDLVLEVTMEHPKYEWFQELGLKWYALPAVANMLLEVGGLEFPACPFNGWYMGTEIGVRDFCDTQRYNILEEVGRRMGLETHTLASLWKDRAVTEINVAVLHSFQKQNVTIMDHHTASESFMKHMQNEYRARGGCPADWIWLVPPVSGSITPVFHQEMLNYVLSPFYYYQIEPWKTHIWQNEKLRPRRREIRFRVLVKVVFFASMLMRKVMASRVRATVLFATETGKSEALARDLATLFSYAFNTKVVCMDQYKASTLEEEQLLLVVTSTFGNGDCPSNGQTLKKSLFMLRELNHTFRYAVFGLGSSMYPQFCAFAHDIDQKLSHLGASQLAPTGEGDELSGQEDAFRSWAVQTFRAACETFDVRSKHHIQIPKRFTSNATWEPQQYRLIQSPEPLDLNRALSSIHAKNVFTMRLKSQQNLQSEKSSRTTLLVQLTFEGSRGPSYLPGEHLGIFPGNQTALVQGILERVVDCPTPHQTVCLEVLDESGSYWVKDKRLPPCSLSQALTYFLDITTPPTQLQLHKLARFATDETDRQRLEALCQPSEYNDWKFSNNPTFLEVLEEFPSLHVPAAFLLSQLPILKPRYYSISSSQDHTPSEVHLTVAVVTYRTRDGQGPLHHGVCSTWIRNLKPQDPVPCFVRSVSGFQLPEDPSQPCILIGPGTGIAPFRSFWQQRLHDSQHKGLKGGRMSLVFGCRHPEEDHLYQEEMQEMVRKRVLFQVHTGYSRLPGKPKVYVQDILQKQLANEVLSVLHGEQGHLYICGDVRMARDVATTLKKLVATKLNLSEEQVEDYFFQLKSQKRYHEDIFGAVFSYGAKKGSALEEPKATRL
# [2] = target: T2, Nitric oxide synthase, inducible (Mus musculus, UniProt P29477); assay: Inhibition of iNOS-induced NO production in LPS-stimulated mouse BV2 cells after 24 hrs; type: cell-based; conditions: bv-2
# T2 sequence (P29477 whole entry): T1 sequence (whole entry)
SMILES,inhibition [1] [%],IC50 [2] [µM]
COc1c(O)cc2oc(-c3ccc([N+](=O)[O-])cc3)cc(=O)c2c1O,45.7,4.73
COc1c(O)cc2oc(-c3cccc(F)c3)cc(=O)c2c1O,39.9,11.4
COc1cc(-c2cc(=O)c3c(O)c(OC)c(O)cc3o2)ccc1O,8.2,–
COc1c(O)cc2oc(-c3ccc(F)cc3)cc(=O)c2c1O,40.8,8.58
COc1c(O)cc2oc(-c3ccccc3F)cc(=O)c2c1O,14.2,–
COc1c(O)cc2oc(-c3ccc(Cl)c(Cl)c3)cc(=O)c2c1O,13.1,–
COc1c(O)cc2oc(-c3ccc(F)cc3F)cc(=O)c2c1O,10.6,–

# Other lines, results leading:
inhibition [1] [%],IC50 [2] [µM],SMILES
40,7.8,COc1c(O)cc(O)c2c(=O)cc(-c3ccccc3)oc12 [WOGONIN]
26,–,COc1c(O)cc2oc(-c3ccccc3)cc(=O)c2c1O
45.2,10.8,COc1c(O)cc2oc(-c3cccc(Br)c3)cc(=O)c2c1O
